Assay results published in article PMC10979003, “Development and crystal structures of a potent second-generation dual degrader of BCL-2 and BCL-xL” (Nature Communications, 2024).

Columns and labels:
[1] = target: T1, BCL-xL R103A/D107A/S110A (Homo sapiens, UniProt Q07817, D107A/R103A/S110A); experiment: AlphaScreen binary binding, BCL-xL R103A/D107A/S110A; details: mean ± s.d., n=3
T1 construct: BCL-xL (aa 2-212) and BCL-2 (aa 1-207) transformed cells were grown in LB broth; SMT3 (N); made in house; host or cells: E. coli BL21 (DE3) codon plus
T1 sequence (Q07817 2-212 R103A/D107A/S110A): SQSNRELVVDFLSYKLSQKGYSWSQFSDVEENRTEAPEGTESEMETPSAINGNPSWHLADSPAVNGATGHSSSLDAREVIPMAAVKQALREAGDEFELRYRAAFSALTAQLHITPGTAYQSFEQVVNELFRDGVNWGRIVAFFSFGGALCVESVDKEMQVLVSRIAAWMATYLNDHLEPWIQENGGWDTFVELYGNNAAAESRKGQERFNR
Procedure: (§1) To test the binary/ternary binding affinities of compounds to BCL-2/BCL-xL, AlphaScreen displacement binding assay was performed to test the capabilities of testing compounds to displace a Biotin-tagged Bim (Biotin-[…]) or Bad (Biotin-[…]) from BCL-2 or BCL-xL for BCL-2 and BCL-xL binding affinities, respectively. All reagents were diluted in assay buffer of 25 mM HEPES, pH 7.5, 150 mM NaCl, 0.1% BSA, and 0.005% tween 20 prior incubation. To a 96-well PCR plate (VWR, Cat. No. 82006-636) was added 10 μL Biotin-tagged Bim (15 nM for WT or 50 nM for mutants) or Bad (15 nM for WT or 50 nM for mutants), 10 μL series diluted compounds solution (2 or 3 or 4× dilution), and 10 μL self-made 6×His tagged BCL-2 WT or mutants (25 nM WT or 50 nM mutants) or 10 μL self-made BCL-xL WT and mutants (10 nM WT or 50 nM mutants). […] The luminescence signal was detected on a Biotek’s Synergy Neo2 multimode plate reader installed with an AphaScreen filter cube. The Ki values of each compounds were calculated by fitting data into the “Binding-competitive, One site-Fit Ki” function in GraphPad Prism (9.2.0) based on concentrations of Biotin–peptide used and experimentally determined Kd values of each 6×His protein &&&and Biotin–Peptide pair.

[2] = target: T2, BCL-xL R103A/D107A (Homo sapiens, UniProt Q07817, D107A/R103A); experiment: AlphaScreen binary binding, BCL-xL R103A/D107A; details: mean ± s.d., n=3
T2 construct: BCL-xL (aa 2-212) and BCL-2 (aa 1-207) transformed cells were grown in LB broth; SMT3 (N); made in house; host or cells: E. coli BL21 (DE3) codon plus
T2 sequence (Q07817 2-212 R103A/D107A): as the sequence (Q07817 2-212 R103A/D107A/S110A) above, with A109S counted along it
Procedure: as §1

[3] = test system: Jurkat cells; experiment: Viability (MTS) assay in Jurkat cells; assay type: cell-based, human; details: 72 h
Procedure: For the viability assays in Jurkat cells, the cells in complete cell culture medium were seeded in 96-well plates (100 µl per well) at the optimized densities (50,000 cells). Compound treatments were prepared in complete cell culture medium and 100 µl of 2× treatment-containing medium were added to each well. Complete cell culture medium without treatment was added in control wells, and wells containing medium without cells served as background. The outer wells of the 96-well plate were not used for treatment and were filled with 250 µl of PBS to reduce evaporation of medium from inner wells. Each compound and/or combination was tested at nine different concentrations with three replicates. The cell viability was measured after 72 h by tetrazolium-based MTS assay. […] The cells were incubated for 4 h at 37 °C and 5% CO2, and then the absorbance was recorded at 490 nm using Biotek’s Synergy Neo2 multimode plate reader (Biotek). The average absorbance value of background wells was subtracted from absorbance value of each control and treatment well, and percent cell viability ((At/A0) × 100) was determined in each treatment well, where At is the absorbance value of the treatment well and A0 is the average absorbance value of control wells after background subtraction. […]

[4] = target: T3, BCL-2 E114A (Homo sapiens, UniProt P10415, E114A); experiment: AlphaScreen binary binding, BCL-2 E114A
T3 construct: BCL-xL (aa 2-212) and BCL-2 (aa 1-207) transformed cells were grown in LB broth; made in house; host or cells: E. coli BL21 (DE3) codon plus
T3 sequence (P10415 1-207 E114A): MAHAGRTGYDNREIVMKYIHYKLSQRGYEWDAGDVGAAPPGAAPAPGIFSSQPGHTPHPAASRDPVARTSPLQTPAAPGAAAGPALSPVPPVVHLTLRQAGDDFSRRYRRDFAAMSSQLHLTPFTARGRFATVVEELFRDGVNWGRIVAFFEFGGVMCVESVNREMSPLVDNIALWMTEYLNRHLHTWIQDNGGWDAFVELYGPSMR
Procedure: as §1

[5] = target: T4, HiBiT-BCL-xL/HaloTag-VHL (Homo sapiens, UniProt P40337+Q07817); experiment: NanoBRET ternary complex formation assay in 293T cells, HiBiT-BCL-xL and HaloTag-VHL; assay type: cell-based; details: 4 h, MG132 pretreatment
T4 construct: full-length BCL-xL and BCL-2 were expressed in cells for the nanoBRET assay; host or cells: 293T
T4 sequence (Q07817 whole entry): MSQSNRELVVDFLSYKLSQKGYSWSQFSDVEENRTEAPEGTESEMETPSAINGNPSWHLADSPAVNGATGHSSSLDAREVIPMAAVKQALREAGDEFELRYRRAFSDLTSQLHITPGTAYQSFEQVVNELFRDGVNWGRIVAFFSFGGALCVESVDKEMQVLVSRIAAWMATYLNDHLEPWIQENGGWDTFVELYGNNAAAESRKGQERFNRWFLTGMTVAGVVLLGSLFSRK
T4 sequence (Q15369 whole entry, further chain): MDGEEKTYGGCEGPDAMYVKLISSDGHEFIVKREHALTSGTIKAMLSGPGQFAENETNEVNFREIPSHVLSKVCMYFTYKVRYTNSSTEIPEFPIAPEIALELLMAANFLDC
T4 sequence (Q15370 whole entry, further chain): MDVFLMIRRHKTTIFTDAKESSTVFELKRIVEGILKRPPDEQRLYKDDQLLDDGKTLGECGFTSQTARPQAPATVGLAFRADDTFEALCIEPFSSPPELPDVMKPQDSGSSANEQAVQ
T4 sequence (P40337 whole entry): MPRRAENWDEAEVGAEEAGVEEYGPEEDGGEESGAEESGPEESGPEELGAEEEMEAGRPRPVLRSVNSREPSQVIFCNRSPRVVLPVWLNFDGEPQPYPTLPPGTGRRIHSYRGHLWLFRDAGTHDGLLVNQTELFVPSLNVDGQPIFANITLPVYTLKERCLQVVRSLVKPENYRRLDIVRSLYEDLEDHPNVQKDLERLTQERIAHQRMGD
Procedure: Plasmids HaloTag-VHL (Cat. No. CS1679C155) and CMV HiBiT (Cat. No. CS1956B03) were purchased from Promega. HiBiT-BCL-xL and HiBiT-BCL-2 were constructed previously. 293T cells (8 × 10^5 cells/well in a 6-well plate) were transfected with Lipofectamine (Life Technologies) and 1 μg HaloTag-VHL, 20 ng HiBiT-BCL-xL and 20 ng LgBiT or 1 μg HaloTag-VHL, 20 ng HiBiT-BCL-2 and 20 ng LgBiT. After 48 h, 2 × 10^4 transfected cells were seeded into each well of white 96-well tissue culture plates in Gibco™ Opti-MEM™ I Reduced Serum Medium, No Phenol Red (Cat. No. 11-058-021, Fisher) containing 4% FBS with or without HaloTag NanoBRET 618 Ligand (Cat. No. PRN1662, Promega) and incubated overnight at 37 °C, 5% CO2. […] After treatment, NanoBRET Nano-Glo Substrate (cat. no. N1662, Promega) was added into the medium, and the contents were mixed by shaking the plate for 30 s before measuring donor and acceptor signals on Biotek plate reader. Dual-filtered luminescence was collected with a 450/50 nm bandpass filter (donor, NanoBiT-BCL-XL protein or NanoBiT-BCL-2 protein) and a 610-nm longpass filter (acceptor, HaloTag NanoBRET ligand) using an integration time of 0.5 s. mBRET ratios were calculated following the NanoBRET™ Nano-Glo® Detection System (Cat. No. N1662, Promega).

Ki [1] | Ki [2] | Compound | Potency in killing Jurkat cells (comparison) [3] | Increase in Ki for the binary interaction, mutant E114A versus WT BCL-2 [4] | Ki ([4]; mean ± s.d., n=3) | Cellular ternary complex formation with BCL-xL (comparison) [5]
18.4 ± 2.3 nM | 36.7 ± 3 nM | Cc1ncsc1-c1ccc(C(C)NC(=O)C2CC(O)CN2C(=O)C(NC(=O)CCCCCCC(=O)N2CCN(CC3(C)CCC(c4ccc(Cl)cc4)=C(CN4CCN(c5ccc(C(=O)NS(=O)(=O)c6ccc(NC(CCN7CCOCC7)CSc7ccccc7)c(S(=O)(=O)C(F)(F)F)c6)cc5)CC4)C3)CC2)C(C)(C)C)cc1 (stereo not drawn) [753b] |  |  |  | 
 |  | Cc1ncsc1-c1ccc([C@H](C)NC(=O)[C@@H]2C[C@@H](O)CN2C(=O)[C@@H](NC(=O)CN2CCN(CC(=O)N3CCN(C[C@]4(C)CCC(c5ccc(Cl)cc5)=C(CN5CCN(c6ccc(C(=O)NS(=O)(=O)c7ccc(N[C@H](CCN8C[C@@H]9C[C@H]8CO9)CSc8ccccc8)c(S(=O)(=O)C(F)(F)F)c7)cc6)CC5)C4)CC3)CC2)C(C)(C)C)cc1 [WH244] | outperformed 753b, DT2216, and ABT263 | more than two-fold | 7.4 ± 1.5 nM | significantly lower compound concentration than 753b
